Molecular target: T1, D1 dopamine receptor (Macaca fascicularis, UniProt Q5I6B7)
T1 sequence (Q5I6B7 whole entry): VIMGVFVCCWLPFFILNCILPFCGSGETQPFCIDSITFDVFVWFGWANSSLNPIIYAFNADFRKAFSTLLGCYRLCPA

In the case of `Oc1cc2c(cc1O)C1c3ccccc3CNC1CC2` (stereo unspecified) [Dihydrexidine, DHX], the Ki is reported as 20.2 nM.

— BindingDB's records for doi:10.1111/j.1527-3458.2004.tb00024.x (Karolinska Institutet, 2004)
